Experimental data reported in ChEMBL document CHEMBL2062358, “Hortonones A to C, hydroazulenones from the genus Hortonia” (J Nat Prod, 2012).
The source made the active and inactive calls. The calls are words filed in the database; no cut-off is given here.

How the values were obtained:
MCF7 [1] = assay: Cytotoxicity against human MCF7 cells at 100 ug/ml after 48 hrs by MTT assay; assay type: functional, cell-based
MCF7 [2] = assay: Cytotoxicity against human MCF7 cells at 5 ug/ml after 48 hrs by MTT assay; assay type: functional, cell-based

| Compound | Activity (MCF7 [1]) | Activity (MCF7 [2]) |
| --- | --- | --- |
| CC1=CC(=O)[C@H]2CC[C@H](C(C)C)[C@@]2(C)CC1 (relative stereo) | inactive | – |
| CC(C)[C@H]1CC[C@@H]2C=CC(=O)CC[C@]12C (relative stereo) | – | Active |
| CC(C)[C@H]1CC[C@@H]2C(=O)C=C(CO)CC[C@@]21C (relative stereo) | inactive | – |
